Laboratory results taken from US9974800B2 (priority 2014, dated 2018).

Tested on: Ebola virus
Assay type: cell-based
Details: alone

CC[C@H]1OC(=O)[C@H](C)[C@@H](O[C@H]2C[C@@](C)(OC)[C@@H](O)[C@H](C)O2)[C@H](C)[C@@H](O[C@@H]2O[C@H](C)C[C@H](N(C)C)[C@H]2O)[C@](C)(OC)C[C@@H](C)C(=O)[C@H](C)[C@@H](O)[C@]1(C)O [Clarithromycin]
inhibit EBOV infection in primary macrophages: can inhibit EBOV infection
